According to ChEMBL document CHEMBL4190260, “Antibiofilm potential of 16-oxo-cleroda-3, 13(14) E-diene-15 oic acid and its five new γ-amino γ-lactone derivatives against methicillin resistant Staphylococcus aureus and Streptococcus mutans” (2017):
Values after ≈ are worked out from the molar mass of the structure shown. Active and inactive are the calls of the source. No cut-off for these calls is given here.

Experiments:
[1] = tested on: Streptococcus mutans; experiment: Bacteriostatic activity against Streptococcus mutans ATCC 25175 assessed as log reduction in colony forming units at 12 to 16 ug/ml after 24 hrs; format: functional, organism-based
[2] = tested on: Streptococcus mutans; experiment: Antibacterial activity against Streptococcus mutans ATCC 25175 measured after overnight incubation by two-fold serial dilution method; format: functional
[3] = tested on: Staphylococcus aureus; experiment: Antibacterial activity against methicillin-resistant Staphylococcus aureus ATCC 43300 assessed as reduction in bacterial viability at 4 to 16 ug/ml measured after 24 hrs by MTT assay; format: functional
[4] = tested on: Streptococcus mutans; experiment: Potency index, ratio of cefixime MIC to test compound MIC for Streptococcus mutans ATCC 25175; format: functional
[5] = tested on: Staphylococcus aureus; experiment: Antibiofilm activity against methicillin-resistant Staphylococcus aureus ATCC 43300 assessed as formation of broken chains at MBIC concentration by uranyl acetate-staining based electron microscopy; format: functional, organism-based
[6] = tested on: Staphylococcus aureus; experiment: Potency index, ratio of gentamycin sulphate MIC to test compound MIC for methicillin-resistant Staphylococcus aureus ATCC 43300; format: functional
[7] = tested on: Streptococcus mutans; experiment: Antibacterial activity against Streptococcus mutans ATCC 25175 measured assessed as inhibition of colony formation at 5 to 20 ug/ml after 24 hrs; format: functional, organism-based
[8] = tested on: Streptococcus mutans; experiment: Antibiofilm activity against Streptococcus mutans ATCC 25175 assessed as formation of broken chains at MBIC concentration by uranyl acetate-staining based electron microscopy; format: functional, organism-based
[9] = tested on: Streptococcus mutans; experiment: Antibacterial activity against Streptococcus mutans ATCC 25175 assessed as reduction in acid production at 0.5 times MIC and MIC measured up to 24 hrs; format: functional, organism-based
[10] = tested on: Staphylococcus aureus; experiment: Potency index, ratio of cefixime MIC to test compound MIC for methicillin-resistant Staphylococcus aureus ATCC 43300; format: functional
[11] = tested on: Staphylococcus aureus; experiment: Antibiofilm activity against methicillin-resistant Staphylococcus aureus ATCC 43300 assessed as formation of oviod cells at MBIC concentration by uranyl acetate-staining based electron microscopy; format: functional, organism-based
[12] = tested on: Streptococcus mutans; experiment: Antibacterial activity against Streptococcus mutans ATCC 25175 assessed as time delay in bacterial growth at MIC, 2 times MIC and 4 times MIC; format: functional
[13] = tested on: Staphylococcus aureus; experiment: Antibacterial activity against methicillin-resistant Staphylococcus aureus ATCC 43300 assessed as delay in bacterial growth at MIC after 10 mins; format: functional, organism-based
[14] = tested on: Streptococcus mutans; experiment: Antibacterial activity against Streptococcus mutans ATCC 25175 measured assessed as reduction in bacterial viability at 5 to 20 ug/ml after 24 hrs by MTT assay; format: functional
[15] = tested on: Staphylococcus aureus; experiment: Antibiofilm activity against methicillin-resistant Staphylococcus aureus ATCC 43300 assessed as disruption of biofilm at 10 to 12 ug/ml by fluorescence microscopy; format: functional, organism-based
[16] = tested on: Staphylococcus aureus; experiment: Antibiofilm activity against methicillin-resistant Staphylococcus aureus ATCC 43300 assessed as down-regulation of IcaA gene expression by semi-quantitative PCR analysis; format: functional, organism-based
[17] = tested on: Streptococcus mutans; experiment: Antibiofilm activity against Streptococcus mutans ATCC 25175 assessed as formation of oviod cells at MBIC concentration by uranyl acetate-staining based electron microscopy; format: functional, organism-based
[18] = tested on: Streptococcus mutans; experiment: Antibiofilm activity against Streptococcus mutans ATCC 25175 assessed as down-regulation of luxS gene expression by semi-quantitative PCR analysis; format: functional, organism-based
[19] = tested on: Streptococcus mutans; experiment: Antibiofilm activity against Streptococcus mutans ATCC 25175 assessed as disruption of biofilm at 10 to 12 ug/ml by fluorescence microscopy; format: functional, organism-based
[20] = tested on: Staphylococcus aureus; experiment: Antibacterial activity against methicillin-resistant Staphylococcus aureus ATCC 43300 assessed as delay in bacterial growth at 4 times MIC after 10 mins; format: functional, organism-based
[21] = tested on: Streptococcus mutans; experiment: Antibiofilm activity against Streptococcus mutans ATCC 25175 assessed as down-regulation of gtfB gene expression by semi-quantitative PCR analysis; format: functional, organism-based
[22] = tested on: Streptococcus mutans; experiment: Bactericidal activity against Streptococcus mutans ATCC 25175 measured after overnight incubation; format: functional
[23] = tested on: Staphylococcus aureus; experiment: Antibacterial activity against methicillin-resistant Staphylococcus aureus ATCC 43300 measured after overnight incubation by two-fold serial dilution method; format: functional
[24] = tested on: Staphylococcus aureus; experiment: Bactericidal activity against methicillin-resistant Staphylococcus aureus ATCC 43300 measured after overnight incubation; format: functional
[25] = tested on: Staphylococcus aureus; experiment: Bacteriostatic activity against methicillin-resistant Staphylococcus aureus ATCC 43300 assessed as log reduction in colony forming units at 15 to 20 ug/ml after 24 hrs; format: functional, organism-based
[26] = tested on: Klebsiella pneumoniae; experiment: Antibacterial activity against Klebsiella pneumoniae ATCC 13882 measured after overnight incubation by two-fold serial dilution method; format: functional
[27] = tested on: Streptococcus mutans; experiment: Potency index, ratio of 6 amino penicillinic acid MIC to test compound MIC for Streptococcus mutans ATCC 25175; format: functional
[28] = tested on: Staphylococcus aureus; experiment: Antibacterial activity against methicillin-resistant Staphylococcus aureus ATCC 43300 assessed as inhibition of colony formation at 4 to 16 ug/ml measured after 24 hrs; format: functional, organism-based
[29] = tested on: Streptococcus mutans; experiment: Antibiofilm activity against Streptococcus mutans ATCC 25175 assessed as down-regulation of gtfC gene expression by semi-quantitative PCR analysis; format: functional, organism-based
[30] = tested on: Staphylococcus aureus; experiment: Antibacterial activity against methicillin-resistant Staphylococcus aureus ATCC 43300 assessed as reduction in acid production at 0.5 times MIC and MIC measured up to 24 hrs; format: functional, organism-based
[31] = tested on: Staphylococcus aureus; experiment: Antibiofilm activity against methicillin-resistant Staphylococcus aureus ATCC 43300 measured after overnight incubation by crystal violet-staining based assay; format: functional
[32] = tested on: Streptococcus mutans; experiment: Antibiofilm activity against Streptococcus mutans ATCC 25175 measured after overnight incubation by crystal violet-staining based assay; format: functional
[33] = tested on: Streptococcus mutans; experiment: Antibacterial activity against Streptococcus mutans ATCC 25175 assessed as log reduction in bacterial count at 10 ug/ml measured after 24 hrs relative to control; format: functional
[34] = tested on: Staphylococcus aureus; experiment: Antibacterial activity against methicillin-resistant Staphylococcus aureus ATCC 43300 assessed as delay in bacterial growth at 2 times MIC after 10 mins; format: functional, organism-based
[35] = tested on: Staphylococcus aureus; experiment: Potency index, ratio of 6 amino penicillinic acid MIC to test compound MIC for methicillin-resistant Staphylococcus aureus ATCC 43300; format: functional
[36] = tested on: Staphylococcus aureus; experiment: Antibacterial activity against methicillin-resistant Staphylococcus aureus ATCC 43300 assessed as log reduction in bacterial count at 8 ug/ml measured after 24 hrs; format: functional
[37] = tested on: Klebsiella pneumoniae; experiment: Antibiofilm activity against Klebsiella pneumoniae ATCC 13882 measured after overnight incubation by crystal violet-staining based assay; format: functional
[38] = tested on: Proteus mirabilis; experiment: Antibiofilm activity against Proteus mirabilis ATCC 12453 measured after overnight incubation by crystal violet-staining based assay; format: functional
[39] = tested on: Proteus mirabilis; experiment: Antibacterial activity against Proteus mirabilis ATCC 12453 measured after overnight incubation by two-fold serial dilution method; format: functional
[40] = tested on: Proteus mirabilis; experiment: Antibiofilm activity against Proteus mirabilis ATCC 12453 at >= 50 ug/ml measured after overnight incubation by crystal violet-staining based assay; format: functional, organism-based
[41] = tested on: Klebsiella pneumoniae; experiment: Antibiofilm activity against Klebsiella pneumoniae ATCC 13882 at >= 50 ug/ml measured after overnight incubation by crystal violet-staining based assay; format: functional, organism-based

SMILES: CC1=CCC[C@@H]2[C@@](C)(CC/C(C=O)=C\C(=O)O)[C@H](C)CC[C@@]12C
- Activity [1]: Active
- MIC [2]: 20 µg/mL (≈ 62.8 µM)
- Activity [3]: <=90%
- Ratio [4]: 5
- Activity [5]: Active
- Ratio [6]: 5
- Activity [7]: Active
- Activity [8]: Active
- Activity [9]: Active
- Ratio [10]: 5
- Activity [11]: Active
- Time [12]: >=8 hr
- Activity [13]: Active
- Activity [14]: <=90%
- Activity [15]: Active
- Activity [16]: Active
- Activity [17]: Active
- Activity [18]: Active
- Activity [19]: Active
- Activity [20]: Active
- Activity [21]: Active
- MBC [22]: 185 µg/mL (≈ 581 µM)
- MIC [23]: 16 µg/mL (≈ 50.2 µM)
- MBC [24]: 95 µg/mL (≈ 298 µM)
- Activity [25]: Active
- MIC [26]: inactive
- Ratio [27]: 5
- Activity [28]: Active
- Activity [29]: Active
- Activity [30]: Active
- Activity [31]: 94.26%
- MBIC [31]: 16 µg/mL
- Activity [32]: 92.06%
- MBIC [32]: 20 µg/mL
- Activity [33]: 7.5 - 8 log10CFU/ml
- Activity [34]: Active
- Ratio [35]: 5
- Activity [36]: 9 log10CFU/ml

SMILES: CN[C@@H]1[C@@H](O)[C@@H](O[C@@H]2[C@@H](O)[C@H](O[C@H]3O[C@H](CN)CC[C@H]3N)[C@@H](N)C[C@H]2N)OC[C@]1(C)O.O=S(=O)(O)O
- MIC [2]: 10 µg/mL
- Activity [37]: 89.92%
- MBIC [37]: 3 µg/mL
- MIC [23]: 135 µg/mL
- MIC [26]: 3 µg/mL
- Activity [31]: 90.8%
- MBIC [31]: 150 µg/mL
- Activity [38]: 89.22%
- MBIC [38]: 6.25 µg/mL
- MIC [39]: 6.25 µg/mL
- Activity [32]: 76.42%
- MBIC [32]: 10 µg/mL

SMILES: CC1(C)S[C@@H]2[C@H](N)C(=O)N2[C@H]1C(=O)O
- MIC [2]: 70 µg/mL (≈ 324 µM)
- Activity [37]: 68.9%
- MBIC [37]: 35 µg/mL
- MIC [23]: 135 µg/mL (≈ 624 µM)
- MIC [26]: 35 µg/mL (≈ 162 µM)
- Activity [31]: 60.46%
- MBIC [31]: 150 µg/mL
- Activity [38]: 89.2%
- MBIC [38]: 35 µg/mL
- MIC [39]: 35 µg/mL (≈ 162 µM)
- Activity [32]: 29.31%
- MBIC [32]: 7 µg/mL

SMILES: CC1=CCC[C@@H]2[C@@](C)(CC/C(C)=C/C(=O)O)[C@H](C)CC[C@@]12C
- MIC [2]: inactive

SMILES: CC1=CCC[C@@H]2[C@@](C)(CCC3=CC(=O)OC3Nc3cccc(F)c3)[C@H](C)CC[C@@]12C (mixture of isomers)
- MIC [2]: 60 µg/mL
- Activity [40]: Active
- Activity [41]: Active
- MIC [23]: 60 µg/mL
- MIC [26]: inactive
- Activity [31]: 83.12%
- Activity [38]: 68.75%
- MBIC [38]: 110 µg/mL
- MIC [39]: 125 µg/mL
- Activity [32]: 73.17%
- MBIC [32]: 55 µg/mL

SMILES: CC1=CCC[C@@H]2[C@@](C)(CCC3=CC(=O)OC3Nc3ccccc3F)[C@H](C)CC[C@@]12C (mixture of isomers)
- MIC [2]: 50 µg/mL
- Activity [40]: Active
- Activity [41]: Active
- MIC [23]: 45 µg/mL
- MIC [26]: inactive
- Activity [31]: 76.25%
- Activity [38]: 62.5%
- MBIC [38]: 90 µg/mL
- MIC [39]: 125 µg/mL
- Activity [32]: 69.05%
- MBIC [32]: 45 µg/mL

SMILES: CC1=CCC[C@@H]2[C@@](C)(CCC3=CC(=O)OC3Nc3ccc(-c4ccc(NC5OC(=O)C=C5CC[C@@]5(C)[C@H](C)CC[C@@]6(C)C(C)=CCC[C@H]56)c(C)c4)cc3C)[C@H](C)CC[C@@]12C (mixture of isomers)
- MIC [2]: inactive

SMILES: CC1=CCC[C@@H]2[C@@](C)(CCC3=CC(=O)OC3Nc3ccc(F)cc3)[C@H](C)CC[C@@]12C (mixture of isomers)
- MIC [2]: inactive

SMILES: C=CC1=C(C(=O)O)N2C(=O)[C@@H](NC(=O)/C(=N\OCC(=O)O)c3csc(N)n3)[C@H]2SC1 [CEFIXIME]
- MIC [2]: 40 µg/mL (≈ 88.2 µM)
- Activity [37]: 94.78%
- MBIC [37]: 40 µg/mL
- MIC [23]: 82 µg/mL (≈ 181 µM)
- MIC [26]: 40 µg/mL (≈ 88.2 µM)
- Activity [31]: 73.5%
- MBIC [31]: 82 µg/mL
- Activity [38]: 72.6%
- MBIC [38]: 40 µg/mL
- MIC [39]: 40 µg/mL (≈ 88.2 µM)
- Activity [32]: 96.06%
- MBIC [32]: 40 µg/mL
